Test [1] addresses T1, TYK2-JH2 domain (Homo sapiens, UniProt P29597).
T1 construct: IC50 on JH2 domain activity (nM)
Put plainly: Binding activity test for JH2 domain of TYK2 (Tb-antibody/tracer FRET). Conditions: for JAK1/TYK2 selectivity: ratio JAK1-JH2 IC50 / TYK2-JH2 IC50. In outline: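 FRET read-out after 60 min at 25° C plus overnight at 4° C; tracer displacement detected via Tb-labelled antibody on the JH2 domain. Dose-response used 11 points at 3-fold dilution.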

Test [2] deals with T2, JAK1-JH2 domain (Homo sapiens, UniProt P23458).
T2 construct: IC50 on JH2 domain activity (nM)
T2 sequence (P23458 583-855 limits assumed): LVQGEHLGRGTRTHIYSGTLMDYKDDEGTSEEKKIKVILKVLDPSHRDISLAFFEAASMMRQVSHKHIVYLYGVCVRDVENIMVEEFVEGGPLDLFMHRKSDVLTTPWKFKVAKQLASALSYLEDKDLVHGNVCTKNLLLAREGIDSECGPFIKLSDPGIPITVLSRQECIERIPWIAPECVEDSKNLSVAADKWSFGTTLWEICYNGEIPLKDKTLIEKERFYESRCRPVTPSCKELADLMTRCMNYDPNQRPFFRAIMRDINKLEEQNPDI
Put plainly: Binding activity test for JH2 domain of JAK1 (Tb-antibody/tracer FRET). On the procedure: Binding Activity Test for […] Domain of JAK1 and TYK2 The compounds are prepared in DMSO for 200× top dose, then serial dilute it with 27-fold for 3 more points. Add 8 μL/well in echo source plate, echo will add 75 nL/well with 3-fold serial dilution for 11 points in assay plate. 75 nL DMSO for high control and low control. […] For low control, add 5 μL/well assay buffer. And then spin down at 1000 rpm and centrifuge for 30 seconds. After enzyme system prepared, add 5 μL of Tb-antibody solution into each wells of assay plate. Spin down at 1000 rpm and centrifuge for 30 sec. After Tb-antibody added, also add 5 μL of tracer into the assay plate. Spin down at 1000 rpm and centrifuge for 30 sec. Incubate for 60 mins at 25° C. firstly and then continue to incubate the plate at 4° C. overnight. Read by envision in FRET mode. The Luminescence value was recorded by a multi-label reader Envision (PerkinElmer).

For test [3], the target named is T3, Ba/F3-FL-TYK2-P760L cells (Homo sapiens, UniProt P29597, P760L, cells depend on it).
T3 construct: BaF3-FL-T2P760L (nM)
T3 sequence (P29597 whole entry P760L): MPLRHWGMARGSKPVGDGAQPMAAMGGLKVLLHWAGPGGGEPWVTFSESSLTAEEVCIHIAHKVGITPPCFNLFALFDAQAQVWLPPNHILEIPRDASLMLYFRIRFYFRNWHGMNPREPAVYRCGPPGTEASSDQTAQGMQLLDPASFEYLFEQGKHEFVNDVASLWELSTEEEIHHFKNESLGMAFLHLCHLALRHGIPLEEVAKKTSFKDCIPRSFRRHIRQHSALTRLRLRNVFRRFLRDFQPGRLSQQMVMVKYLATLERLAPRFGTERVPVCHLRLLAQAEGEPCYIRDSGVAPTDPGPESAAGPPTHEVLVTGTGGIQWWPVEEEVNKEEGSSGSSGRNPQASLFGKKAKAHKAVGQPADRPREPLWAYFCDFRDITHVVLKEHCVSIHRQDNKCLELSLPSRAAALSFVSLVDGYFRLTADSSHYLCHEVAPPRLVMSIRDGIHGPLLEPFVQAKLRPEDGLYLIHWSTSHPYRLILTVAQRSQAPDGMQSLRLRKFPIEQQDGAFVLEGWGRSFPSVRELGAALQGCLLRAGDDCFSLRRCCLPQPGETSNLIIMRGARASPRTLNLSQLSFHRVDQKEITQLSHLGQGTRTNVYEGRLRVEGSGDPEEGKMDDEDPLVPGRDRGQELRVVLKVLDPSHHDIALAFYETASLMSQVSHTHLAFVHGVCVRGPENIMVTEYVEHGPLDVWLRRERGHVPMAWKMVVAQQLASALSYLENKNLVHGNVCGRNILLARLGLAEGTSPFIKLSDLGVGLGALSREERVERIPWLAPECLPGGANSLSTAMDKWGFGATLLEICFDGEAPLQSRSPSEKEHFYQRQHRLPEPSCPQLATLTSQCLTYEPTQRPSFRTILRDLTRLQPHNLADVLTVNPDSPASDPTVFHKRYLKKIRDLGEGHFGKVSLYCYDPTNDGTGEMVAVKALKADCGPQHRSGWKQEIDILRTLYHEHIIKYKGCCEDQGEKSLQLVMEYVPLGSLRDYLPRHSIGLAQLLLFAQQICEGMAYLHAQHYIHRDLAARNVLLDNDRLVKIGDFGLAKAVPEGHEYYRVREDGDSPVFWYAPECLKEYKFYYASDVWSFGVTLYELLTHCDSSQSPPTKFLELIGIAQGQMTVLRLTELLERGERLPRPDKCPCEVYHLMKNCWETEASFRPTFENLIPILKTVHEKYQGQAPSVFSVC
Put plainly: Anti-proliferative assay, Ba/F3-FL-TYK2-P760L cells (Cell-Titer Glo). The format is cell-based. Conditions: 72 h, read-out: BaF3-FL-T2P760L IC50. In outline: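 Compound exposure ran 72 h at 37 °C in 5% CO2 across nine 3-fold concentrations from a 20 μM top dose, added 24 h after seeding 2000 cells/well.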

The structures appear in SMILES notation. A value given as a limit tells only on which side of the number the result lay.

T1 sequence (P29597 589-875 limits assumed): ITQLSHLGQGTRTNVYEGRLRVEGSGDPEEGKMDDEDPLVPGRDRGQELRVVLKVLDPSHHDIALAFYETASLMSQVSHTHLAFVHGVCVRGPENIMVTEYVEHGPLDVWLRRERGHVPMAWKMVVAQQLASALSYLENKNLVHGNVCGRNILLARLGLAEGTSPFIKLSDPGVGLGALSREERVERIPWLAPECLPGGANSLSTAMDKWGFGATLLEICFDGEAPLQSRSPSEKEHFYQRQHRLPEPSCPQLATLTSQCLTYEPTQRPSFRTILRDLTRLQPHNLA

Take `[2H]C([2H])([2H])NC(=O)c1cnc(NC(=O)C2CC2)cc1Nc1ccn2ncc(C(C)C#N)c2c1OC` (single isomer, unassigned) [Example 251A, (R*)-4-((3-(1-cyanoethyl)-4-methoxypyrazolo[1,5-a]pyridin-5-yl)amino)-6-(cyclopropanecarboxamido)-N-(methyl-d3)nicotinamide]: in test [1], the IC50 was 1.03 nM and the JAK1/TYK2 selectivity is on record as 94.03. This compound also gave an IC50 in test [2] of 97.2 nM. Further, the GI50 in test [3] turned out to be 541 nM.

For `[2H]C([2H])([2H])NC(=O)c1cnc(NC(=O)C2CC2)cc1Nc1nn(CCC)c2ccn(CC(F)(F)F)c(=O)c12` [Example 208, 6-(Cyclopropanecarboxamido)-N-(methyl-d3)-4-((4-oxo-1-propyl-5-(2,2,2-trifluoroethyl)-4,5-dihydro-1H-pyrazolo[4,3-c]pyridin-3-yl)amino)nicotinamide], in test [1], the IC50 was 0.248 nM and the JAK1/TYK2 selectivity came out at 140.1. In test [2], this compound displayed an IC50 of 34.7 nM. Besides, the GI50 in test [3] was determined as 64.6 nM.

With `[2H]C([2H])([2H])NC(=O)c1cnc(NC(=O)C2CC2)cc1Nc1ncc2cnn(CC(C)(F)F)c2c1OC` [Example 276, 6-(Cyclopropanecarboxamido)-4-((1-(2,2-difluoropropyl)-7-methoxy-1H-pyrazolo[4,3-c]pyridin-6-yl)amino)-N-(methyl-d3)nicotinamide], in test [1], the IC50 came out at 0.253 nM and the JAK1/TYK2 selectivity was 436.1. The IC50 in test [2] was 110 nM. The GI50 in test [3] worked out at 88.2 nM.

Take `[2H]C([2H])([2H])NC(=O)c1cnc(NC(=O)C2CC2)cc1Nc1ccn2ncc(C3CC3)c2c1OC` [Example 250, 6-(Cyclopropanecarboxamido)-4-((3-cyclopropyl-4-methoxypyrazolo[1,5-a]pyridin-5-yl)amino)-N-(methyl-d3)nicotinamide]: in test [1], the IC50 came to 0.233 nM and the JAK1/TYK2 selectivity stood at 30.19. The IC50 in test [2] was determined as 7.04 nM. In addition, the GI50 in test [3] turned out to be 160 nM.

As for `[2H]C([2H])([2H])NC(=O)c1cnc(NC(=O)CC)cc1Nc1ccc2cnn(CC)c2c1OC` [Example 229, 4-((1-Ethyl-7-methoxy-1H-indazol-6-yl)amino)-N-(methyl-d3)-6-propionamidonicotinamide], the figures for the IC50 in test [1] and in test [2] were 1.68 nM and 105 nM, respectively. The JAK1/TYK2 selectivity in test [1] was 62.5. Also, in test [3], the GI50 is 564 nM.

As to `[2H]C([2H])([2H])NC(=O)c1cnc(Nc2ccc(N3CCOCC3)cn2)cc1Nc1ccc2cnn(CC)c2c1OC` [Example 273, 4-((1-Ethyl-7-methoxy-1H-indazol-6-yl)amino)-N-(methyl-d3)-6-((5-morpholinopyridin-2-yl)amino)nicotinamide], in test [1], the IC50 came out at 0.166 nM and the JAK1/TYK2 selectivity came to 16.1. The IC50 in test [2] was 2.68 nM. For the same compound, the GI50 in test [3] turned out to be 28.4 nM.

As for `[2H]C([2H])([2H])NC(=O)c1cnc(NC(=O)C2CC2)cc1Nc1ccn2ncc(F)c2c1OC` [Example 253, 6-(Cyclopropanecarboxamido)-4-((3-fluoro-4-methoxypyrazolo[1,5-a]pyridin-5-yl)amino)-N-(methyl-d3)nicotinamide], the IC50 in test [1] came out at 0.783 nM; in test [2] it was 19 nM. For the same compound, in test [1], the JAK1/TYK2 selectivity was 24.33. Besides, the GI50 in test [3] stood at 232 nM.

As for `[2H]C([2H])([2H])NC(=O)c1cnc(NC(=O)C2CC2)cc1Nc1cn(CC(F)(F)F)c2ccn(CC)c(=O)c12` [Example 209, 6-(Cyclopropanecarboxamido)-4-((5-ethyl-4-oxo-1-(2,2,2-trifluoroethyl)-4,5-dihydro-1H-pyrrolo[3,2-c]pyridin-3-yl)amino)-N-(methyl-d3)nicotinamide], in test [1], the IC50 was determined as 0.158 nM and the JAK1/TYK2 selectivity was 70.8. Further, the IC50 in test [2] worked out at 11.2 nM. Moreover, the GI50 in test [3] was determined as 52.6 nM.

For `[2H]C([2H])([2H])NC(=O)c1cnc(NC(=O)C2CC2)cc1Nc1ccn2nccc2c1OC` [Example 258, 6-(Cyclopropanecarboxamido)-4-((4-methoxypyrazolo[1,5-a]pyridin-5-yl)amino)-N-(methyl-d3)nicotinamide], the IC50 in test [1] amounted to 0.834 nM; in test [2], 14.9 nM. Also, the JAK1/TYK2 selectivity in test [1] is given as 17.9. The GI50 in test [3] was found to be 205 nM.

With `[2H]C([2H])([2H])NC(=O)c1cnc(NC(=O)C2CC2)cc1Nc1ccn2ncc(OC)c2c1OC` [Example 278, 6-(Cyclopropanecarboxamido)-4-((3,4-dimethoxypyrazolo[1,5-a]pyridin-5-yl)amino)-N-(methyl-d3)nicotinamide], the IC50 in test [1] came out at 0.385 nM; in test [2] it was 9.63 nM. In test [1], the JAK1/TYK2 selectivity worked out at 25.0. Besides, the GI50 in test [3] is 130 nM.

`[2H]C([2H])([2H])NC(=O)c1cnc(NC(=O)C2CC2)cc1Nc1ccn2ncc(C(C)C#N)c2c1OC` (stereo not drawn) [Example 251, 4-((3-(1-Cyanoethyl)-4-methoxypyrazolo[1,5-a]pyridin-5-yl)amino)-6-(cyclopropanecarboxamido)-N-(methyl-d3)nicotinamide]: the IC50 in test [1] amounted to 0.304 nM; in test [2] it was 5.57 nM. In addition, the JAK1/TYK2 selectivity in test [1] was 18.32. Further, the GI50 in test [3] was determined as 117 nM.

On to `[2H]C([2H])([2H])NC(=O)c1cnc(NC(=O)[C@@H]2C[C@H]2F)cc1Nc1ccc2cnn(CC)c2c1OC` (relative stereo) [Example 241, 4-((1-Ethyl-7-methoxy-1H-indazol-6-yl)amino)-6-(trans-2-fluorocyclopropanecarboxamido)-N-(methyl-d3)nicotinamide], for which the IC50 in test [1] was 0.534 nM; in test [2], 15.3 nM. Moreover, the JAK1/TYK2 selectivity in test [1] worked out at 28.7. Also, the GI50 in test [3] turned out to be 161 nM.

For the compound `[2H]C([2H])([2H])NC(=O)c1cnc(NC(=O)C2CC2)cc1Nc1ccn2ncc(CC(N)=O)c2c1OC` [Example 243, 4-((3-(2-Amino-2-oxoethyl)-4-methoxypyrazolo[1,5-a]pyridin-5-yl)amino)-6-(cyclopropanecarboxamido)-N-(methyl-d3)nicotinamide], in test [1], the IC50 turned out to be 3.45 nM and the JAK1/TYK2 selectivity is reported as 37.7. The compound further returned a 50% inhibitory concentration (IC50) in test [2] of 130 nM. Further, in test [3], the GI50 is above 5000 nM.

Consider `[2H]C([2H])([2H])NC(=O)c1cnc(Nc2ccn(C)n2)cc1Nc1ccn2ncc(C#N)c2c1OC` [Example 240, 4-((3-Cyano-4-methoxypyrazolo[1,5-a]pyridin-5-yl)amino)-N-(methyl-d3)-6-((1-methyl-1H-pyrazol-3-yl)amino)nicotinamide], for which, in test [1], the IC50 was 0.26 nM and the JAK1/TYK2 selectivity is given as 19.5. Further, the IC50 in test [2] stood at 5.07 nM. Further, the GI50 in test [3] turned out to be 70.7 nM.

Consider `[2H]C([2H])([2H])NC(=O)c1cnc(NC(=O)C2CC2)cc1Nc1ccn2ncc(C(C)C(N)=O)c2c1OC` (stereo not drawn) [Example 252, 4-((3-(1-Amino-1-oxopropan-2-yl)-4-methoxypyrazolo[1,5-a]pyridin-5-yl)amino)-6-(cyclopropanecarboxamido)-N-(methyl-d3)nicotinamide], for which, in test [1], the IC50 was found to be 1.68 nM and the JAK1/TYK2 selectivity is 125.69. In addition, the IC50 in test [2] was 212 nM. Also, the GI50 in test [3] is above 5000 nM.

In the case of `[2H]C([2H])([2H])NC(=O)c1cnc(NC(=O)C2CC2)cc1Nc1ncc2ncn(CC)c2c1OC` [Example 260, 6-(Cyclopropanecarboxamido)-4-((1-ethyl-7-methoxy-1H-imidazo[4,5-c]pyridin-6-yl)amino)-N-(methyl-d3)nicotinamide], in test [1], the IC50 worked out at 0.124 nM and the JAK1/TYK2 selectivity was 78.9. In test [2], the IC50 is 9.78 nM. In test [3], the GI50 was determined as 143 nM.

On to `[2H]C([2H])([2H])NC(=O)c1cnc(NC(=O)C2CC2)cc1Nc1ccc2cnn(C(C)C#N)c2c1OC` (single isomer, unassigned) [Example 249A, (R*)-4-((1-(1-cyanoethyl)-7-methoxy-1H-indazol-6-yl)amino)-6-(cyclopropanecarboxamido)-N-(methyl-d3)nicotinamide], for which, in test [1], the IC50 was determined as 0.715 nM and the JAK1/TYK2 selectivity is 25.15. In addition, the IC50 in test [2] stood at 18 nM. Further, the GI50 in test [3] amounted to 495 nM.

As for `[2H]C([2H])([2H])NC(=O)c1cnc(NC(=O)C2CC2)cc1Nc1ncc2cnn(CCC(F)(F)F)c2c1OC` [Example 275, 6-(Cyclopropanecarboxamido)-4-((7-methoxy-1-(3,3,3-trifluoropropyl)-1H-pyrazolo[4,3-c]pyridin-6-yl)amino)-N-(methyl-d3)nicotinamide], in test [1], the IC50 was 0.449 nM and the JAK1/TYK2 selectivity was determined as 60.2. This compound also returned an IC50 in test [2] of 27 nM. In test [3], the GI50 was 118 nM.

In general, IC50 refers to the concentration that inhibits the measured activity by half. Higher therefore signals lower potency.
